system: 817829-284-R-J1-PDC complex spheroids, viability; assay: Anticancer human tumor 817829-284-R-J1-PDC patient-derived colon adenocarcinoma cell line growth inhibition [GQUAD]; conditions: second compound 0.1 µM; first compound 1 µM; stronger effect = lower value
How it was run: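 Multi-cell-type spheroids of tumor cells with HUVEC and mesenchymal stem cells, treated with drug combinations. Concentrations descend in half-log steps from near clinical Cmax, or from 10 microM where Cmax is unknown; viability read-out.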
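Further: spheroids exposed to agents for 7 days before readout; percent viability relative to DMSO vehicle control taken as 100%.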

Row | Compound | viability, T/C
1 | CC1COCCN1c1cc(-c2ccnn2C)c2ccnc(-c3ccn[nH]3)c2n1 (configuration not stated) + CN(C)c1ccc(Nc2c3ccc(NC(=O)CCN4CCCC4)cc3nc3cc(NC(=O)CCN4CCCC4)ccc23)cc1 | 7.09%
2 | CC1COCCN1c1cc(C2(O)CC3CCC(C2)O3)c2cnn(-c3ccn[nH]3)c2n1 (configuration not stated) + CN(C)c1ccc(Nc2c3ccc(NC(=O)CCN4CCCC4)cc3nc3cc(NC(=O)CCN4CCCC4)ccc23)cc1 | 6.53%
3 | CC1COCCN1c1cc(C2(S(C)(=N)=O)CC2)nc(-c2ccnc3[nH]ccc23)n1 (configuration not stated) + CN(C)c1ccc(Nc2c3ccc(NC(=O)CCN4CCCC4)cc3nc3cc(NC(=O)CCN4CCCC4)ccc23)cc1 | 26.4%
4 | COc1ccc([C@@H](O)c2cc(-c3ncnc4cc(N5CCOCC5)ccc34)c(F)cc2Cl)nn1 + CN(C)c1ccc(Nc2c3ccc(NC(=O)CCN4CCCC4)cc3nc3cc(NC(=O)CCN4CCCC4)ccc23)cc1 | 94.7%

same assay, conditions: second compound 0.1 µM; first compound 3.16 µM; stronger effect = lower value

Row | Compound | viability, T/C
5 | CC(C)n1c(=O)n(C)c2cnc3cc(F)c(-c4ccc(OCCCN5CCCCC5)nc4)cc3c21 + CN(C)c1ccc(Nc2c3ccc(NC(=O)CCN4CCCC4)cc3nc3cc(NC(=O)CCN4CCCC4)ccc23)cc1 | 105%
6 | CC1COCCN1c1cc(-c2ccnn2C)c2ccnc(-c3ccn[nH]3)c2n1 (configuration not stated) + CN(C)c1ccc(Nc2c3ccc(NC(=O)CCN4CCCC4)cc3nc3cc(NC(=O)CCN4CCCC4)ccc23)cc1 | 6.81%
7 | CC1COCCN1c1cc(C2(O)CC3CCC(C2)O3)c2cnn(-c3ccn[nH]3)c2n1 (configuration not stated) + CN(C)c1ccc(Nc2c3ccc(NC(=O)CCN4CCCC4)cc3nc3cc(NC(=O)CCN4CCCC4)ccc23)cc1 | 6.56%
8 | CC1COCCN1c1cc(C2(S(C)(=N)=O)CC2)nc(-c2ccnc3[nH]ccc23)n1 (configuration not stated) + CN(C)c1ccc(Nc2c3ccc(NC(=O)CCN4CCCC4)cc3nc3cc(NC(=O)CCN4CCCC4)ccc23)cc1 | 11.1%
9 | COc1ccc([C@@H](O)c2cc(-c3ncnc4cc(N5CCOCC5)ccc34)c(F)cc2Cl)nn1 + CN(C)c1ccc(Nc2c3ccc(NC(=O)CCN4CCCC4)cc3nc3cc(NC(=O)CCN4CCCC4)ccc23)cc1 | 63.5%

same assay, conditions: second compound 0.1 µM; first compound 10 µM; stronger effect = lower value

Row | Compound | viability, T/C
10 | CC(C)n1c(=O)n(C)c2cnc3cc(F)c(-c4ccc(OCCCN5CCCCC5)nc4)cc3c21 + CN(C)c1ccc(Nc2c3ccc(NC(=O)CCN4CCCC4)cc3nc3cc(NC(=O)CCN4CCCC4)ccc23)cc1 | 108%
11 | CC1COCCN1c1cc(-c2ccnn2C)c2ccnc(-c3ccn[nH]3)c2n1 (configuration not stated) + CN(C)c1ccc(Nc2c3ccc(NC(=O)CCN4CCCC4)cc3nc3cc(NC(=O)CCN4CCCC4)ccc23)cc1 | 5.85%
12 | CC1COCCN1c1cc(C2(O)CC3CCC(C2)O3)c2cnn(-c3ccn[nH]3)c2n1 (configuration not stated) + CN(C)c1ccc(Nc2c3ccc(NC(=O)CCN4CCCC4)cc3nc3cc(NC(=O)CCN4CCCC4)ccc23)cc1 | 4.3%
13 | CC1COCCN1c1cc(C2(S(C)(=N)=O)CC2)nc(-c2ccnc3[nH]ccc23)n1 (configuration not stated) + CN(C)c1ccc(Nc2c3ccc(NC(=O)CCN4CCCC4)cc3nc3cc(NC(=O)CCN4CCCC4)ccc23)cc1 | 7.72%
14 | COc1ccc([C@@H](O)c2cc(-c3ncnc4cc(N5CCOCC5)ccc34)c(F)cc2Cl)nn1 + CN(C)c1ccc(Nc2c3ccc(NC(=O)CCN4CCCC4)cc3nc3cc(NC(=O)CCN4CCCC4)ccc23)cc1 | 54.7%

same assay, conditions: second compound 0.316 µM; first compound 0.000999 µM; stronger effect = lower value

Row | Compound | viability, T/C
15 | Cn1ncnc1[C@H]1c2n[nH]c(=O)c3cc(F)cc(c23)N[C@@H]1c1ccc(F)cc1 + CN(C)c1ccc(Nc2c3ccc(NC(=O)CCN4CCCC4)cc3nc3cc(NC(=O)CCN4CCCC4)ccc23)cc1 | 95.8%

same assay, conditions: second compound 0.316 µM; first compound 0.00316 µM; stronger effect = lower value

Row | Compound | viability, T/C
16 | Cn1ncnc1[C@H]1c2n[nH]c(=O)c3cc(F)cc(c23)N[C@@H]1c1ccc(F)cc1 + CN(C)c1ccc(Nc2c3ccc(NC(=O)CCN4CCCC4)cc3nc3cc(NC(=O)CCN4CCCC4)ccc23)cc1 | 104%

same assay, conditions: second compound 0.316 µM; first compound 0.00999 µM; stronger effect = lower value

Row | Compound | viability, T/C
17 | Cn1ncnc1[C@H]1c2n[nH]c(=O)c3cc(F)cc(c23)N[C@@H]1c1ccc(F)cc1 + CN(C)c1ccc(Nc2c3ccc(NC(=O)CCN4CCCC4)cc3nc3cc(NC(=O)CCN4CCCC4)ccc23)cc1 | 95.8%

same assay, conditions: second compound 0.316 µM; first compound 0.0316 µM; stronger effect = lower value

Row | Compound | viability, T/C
18 | CC(C)n1c(=O)n(C)c2cnc3cc(F)c(-c4ccc(OCCCN5CCCCC5)nc4)cc3c21 + CN(C)c1ccc(Nc2c3ccc(NC(=O)CCN4CCCC4)cc3nc3cc(NC(=O)CCN4CCCC4)ccc23)cc1 | 96.8%
19 | CC1COCCN1c1cc(-c2ccnn2C)c2ccnc(-c3ccn[nH]3)c2n1 (configuration not stated) + CN(C)c1ccc(Nc2c3ccc(NC(=O)CCN4CCCC4)cc3nc3cc(NC(=O)CCN4CCCC4)ccc23)cc1 | 41.3%
20 | CC1COCCN1c1cc(C2(O)CC3CCC(C2)O3)c2cnn(-c3ccn[nH]3)c2n1 (configuration not stated) + CN(C)c1ccc(Nc2c3ccc(NC(=O)CCN4CCCC4)cc3nc3cc(NC(=O)CCN4CCCC4)ccc23)cc1 | 29.9%
21 | CC1COCCN1c1cc(C2(S(C)(=N)=O)CC2)nc(-c2ccnc3[nH]ccc23)n1 (configuration not stated) + CN(C)c1ccc(Nc2c3ccc(NC(=O)CCN4CCCC4)cc3nc3cc(NC(=O)CCN4CCCC4)ccc23)cc1 | 99%
22 | COc1ccc([C@@H](O)c2cc(-c3ncnc4cc(N5CCOCC5)ccc34)c(F)cc2Cl)nn1 + CN(C)c1ccc(Nc2c3ccc(NC(=O)CCN4CCCC4)cc3nc3cc(NC(=O)CCN4CCCC4)ccc23)cc1 | 92.2%
23 | Cn1ncnc1[C@H]1c2n[nH]c(=O)c3cc(F)cc(c23)N[C@@H]1c1ccc(F)cc1 + CN(C)c1ccc(Nc2c3ccc(NC(=O)CCN4CCCC4)cc3nc3cc(NC(=O)CCN4CCCC4)ccc23)cc1 | 101%

same assay, conditions: second compound 0.316 µM; first compound 0.0999 µM; stronger effect = lower value

Row | Compound | viability, T/C
24 | Cn1ncnc1[C@H]1c2n[nH]c(=O)c3cc(F)cc(c23)N[C@@H]1c1ccc(F)cc1 + CN(C)c1ccc(Nc2c3ccc(NC(=O)CCN4CCCC4)cc3nc3cc(NC(=O)CCN4CCCC4)ccc23)cc1 | 97.7%

same assay, conditions: second compound 0.316 µM; first compound 0.1 µM; stronger effect = lower value

Row | Compound | viability, T/C
25 | CC(C)n1c(=O)n(C)c2cnc3cc(F)c(-c4ccc(OCCCN5CCCCC5)nc4)cc3c21 + CN(C)c1ccc(Nc2c3ccc(NC(=O)CCN4CCCC4)cc3nc3cc(NC(=O)CCN4CCCC4)ccc23)cc1 | 98.3%
26 | CC1COCCN1c1cc(-c2ccnn2C)c2ccnc(-c3ccn[nH]3)c2n1 (configuration not stated) + CN(C)c1ccc(Nc2c3ccc(NC(=O)CCN4CCCC4)cc3nc3cc(NC(=O)CCN4CCCC4)ccc23)cc1 | 20.7%
27 | CC1COCCN1c1cc(C2(O)CC3CCC(C2)O3)c2cnn(-c3ccn[nH]3)c2n1 (configuration not stated) + CN(C)c1ccc(Nc2c3ccc(NC(=O)CCN4CCCC4)cc3nc3cc(NC(=O)CCN4CCCC4)ccc23)cc1 | 14.4%
28 | CC1COCCN1c1cc(C2(S(C)(=N)=O)CC2)nc(-c2ccnc3[nH]ccc23)n1 (configuration not stated) + CN(C)c1ccc(Nc2c3ccc(NC(=O)CCN4CCCC4)cc3nc3cc(NC(=O)CCN4CCCC4)ccc23)cc1 | 96.5%
29 | COc1ccc([C@@H](O)c2cc(-c3ncnc4cc(N5CCOCC5)ccc34)c(F)cc2Cl)nn1 + CN(C)c1ccc(Nc2c3ccc(NC(=O)CCN4CCCC4)cc3nc3cc(NC(=O)CCN4CCCC4)ccc23)cc1 | 107%

same assay, conditions: second compound 0.316 µM; first compound 0.316 µM; stronger effect = lower value

Row | Compound | viability, T/C
30 | CC(C)n1c(=O)n(C)c2cnc3cc(F)c(-c4ccc(OCCCN5CCCCC5)nc4)cc3c21 + CN(C)c1ccc(Nc2c3ccc(NC(=O)CCN4CCCC4)cc3nc3cc(NC(=O)CCN4CCCC4)ccc23)cc1 | 96%
31 | CC1COCCN1c1cc(-c2ccnn2C)c2ccnc(-c3ccn[nH]3)c2n1 (configuration not stated) + CN(C)c1ccc(Nc2c3ccc(NC(=O)CCN4CCCC4)cc3nc3cc(NC(=O)CCN4CCCC4)ccc23)cc1 | 9.46%
32 | CC1COCCN1c1cc(C2(O)CC3CCC(C2)O3)c2cnn(-c3ccn[nH]3)c2n1 (configuration not stated) + CN(C)c1ccc(Nc2c3ccc(NC(=O)CCN4CCCC4)cc3nc3cc(NC(=O)CCN4CCCC4)ccc23)cc1 | 10.4%

Reference: PubChem BioAssay AID2060503 (Molecular Pharmacology Branch, DTP, NCI, 2025)
